From article PMC4764579, “Structural insights into the mechanism of activation of the TRPV1 channel by a membrane-bound tarantula toxin” (eLife, 2016)
Positions of bridges follow the written chain, without caps; N, C: chain ends. Residues, ends and D or L forms follow the SMILES beside them.

Assay: Membrane partitioning of toxins into lipid vesicles measured using Trp fluorescence
Assay type: physicochemical
Conditions: LUVs 1:1 POPC:POPG
From the text: Motivated by the amphipathic character evident in the structure of DkTx, together with the placement of the toxin at the protein-lipid interface when bound to TRPV1, we investigated the interaction of DkTx and each of its two lobes with lipid membranes. For these experiments, we took advantage of the presence of a single conserved and solvent accessible Trp residue in loop 2 of both K1 and K2 (Figure 1C,D; W11 and W53), and used Trp fluorescence to monitor the partitioning of the toxin from the aqueous solution into the membrane environment ([Gupta et al., 2015]; [Ladokhin et al., 2000]; [Milescu et al., 2007]). When aqueous solutions of DkTx were excited at a wavelength of 280 nm, emission spectra with maxima at 353 nm were obtained (Figure 5A, left), as expected for Trp residues residing in such an environment. […] To quantify the extent of partitioning as a function of lipid concentration, we measured the relative fluorescence intensity in a blue-shifted region of the spectra (e.g. 320 nm) as a function of lipid concentration, and fit a partition function to the data to obtain a mole-fraction partition coefficient (Kx) of (2.3 ± 0.7) × 10^6, indicating an energetically favorable interaction of DkTx with lipid membranes (Figure 5A, right). This strong interaction of DkTx with membranes would facilitate binding of the toxin to the channel by increasing the local concentration of the toxin near the channel and by a reduction in the dimensionality of diffusion within the membrane ([Axelrod and Wang, 1994]).
Figure 5. Interaction of DkTx and toxin constructs with lipid membranes measured using Trp fluorescence. (A–E, left panel) Trp emission spectra of DkTx (A), K1 without linker (B), K2 (C), bivalent K1 (K1K1) (D) and bivalent K2 (K2K2) (E) in the absence (black) and presence (blue, 1.6 mM for DkTx, 2 mM for K1-ΔL and K1K1, and 3 mM for K2 and K2K2) of lipid vesicles (1:1 mix of POPC:POPG). (A–E, right panel) Relative fluorescence intensity at 320 nm (F/F0) as a function of available lipid concentrations (60% of total lipid concentration). Smooth curves correspond to partition functions with Kx = (2.3 ± 0.7) × 10^6 and F/F0^max = 2.65 ± 0.08 for DkTx, Kx = (3.9 ± 1.1) × 10^5 and F/F0^max = 2.63 ± 0.07 for K1-ΔL, Kx = (2.0 ± 0.3) × 10^4 and F/F0^max = 3.71 ± 0.40 for K2, Kx = (2.9 ± 0.3) × 10^6 and F/F0^max = 2.47 ± 0.03 for K1K1 and Kx = (8.1 ± 2) × 10^5 and F/F0^max = 2.77 ± 0.55 for K2K2. Error bars correspond to SEM (n = 3 or 4). Partition functions for K1-ΔL and K2 are shown as dotted lines for comparison in D and E, respectively. (F) Comparisons of mole-fraction partition coefficient (Kx) of toxins. 7G-DkTx denotes a construct of DkTx whose linker (PYVPVTT) is replaced with 7 Gly residues. Error bars correspond to SEM (n = 3 or 4). DOI: http://dx.doi.org/10.7554/eLife.11273.020 Figure 5—figure supplement 1. Interaction of K1-K2 chimeras with lipid membranes measured using Trp fluorescence. (A–E, left panel) Trp emission spectra of K1(D1N) (A), K1(K2L2) (B), K1(K2L3) (C), K1(K2L4) (D) and K1(K2CT) (E) in the absence (black) and presence (blue, 2 mM) of lipid vesicles (1:1 mix of POPC:POPG). (A–D, right panel) Relative fluorescence intensity at 320 nm (F/F0) as a function of available lipid concentrations (60% of total lipid concentration). Smooth curves correspond to partition functions with Kx = (1.76 ± 0.06) × 10^6 and F/F0^max = 3.79 ± 0.02 for K1(D1N), Kx = (4.77 ± 1.39) × 10^5 and F/F0^max = 1.31 ± 0.02 for K1(K2L2), Kx = (1.02 ± 0.04) × 10^4 and F/F0^max = 3.69 ± 0.02 for K1(K2L3), and Kx = (0.90 ± 0.04) × 10^6 and F/F0^max = 2.59 ± 0.02 for K1(K2L4). Error bar corresponds to SEM (n = 3 or 4). Smooth curve of K1-ΔL was shown as a dotted line for comparison throughout the figures. (F) Comparisons of mole-fraction partition coefficient (Kx) of toxins. Error bars correspond to SEM (n = 3 or 4). DOI: http://dx.doi.org/10.7554/eLife.11273.021 [drawing 10] […]

CC[C@H](C)[C@@H]1NC(=O)[C@H](Cc2ccccc2)NC(=O)[C@H](C)NC(=O)[C@H](CC(C)C)NC(=O)[C@@H]2CCCN2C(=O)[C@@H]2CSSC[C@@H]3NC(=O)[C@H](C(C)C)NC(=O)[C@H](CCC(=O)O)NC(=O)CNC(=O)[C@H](CCC(=O)O)NC(=O)[C@H](CCCCN)NC(=O)[C@H](C)NC(=O)[C@@H](NC(=O)[C@@H](N)CC(N)=O)CSSC[C@H](NC(=O)[C@H](CSSC[C@@H](C(=O)N[C@@H](CCC(=O)O)C(=O)N[C@@H](CCCCN)C(=O)N[C@@H](Cc4ccc(O)cc4)C(=O)N[C@@H](CCCNC(=N)N)C(=O)O)NC(=O)[C@H](Cc4ccc(O)cc4)NC(=O)[C@@H]4CCCN4C1=O)NC(=O)[C@H](CCCCN)NC(=O)[C@H](CO)NC(=O)CNC(=O)[C@H](Cc1c[nH]c4ccccc14)NC(=O)CNC3=O)C(=O)N[C@@H](Cc1c[nH]cn1)C(=O)NCC(=O)N[C@@H](CC(C)C)C(=O)N[C@@H](CC(=O)O)C(=O)N2 [K2] (H-NCAKEGEVCGWGSKCCHGLDCPLAFIPYCEKYR-OH; disulfide 2-16, 9-21, 15-29 (inferred); N-terminus and C-terminus assumed)
F/F0^max (relative fluorescence intensity at 320 nm when partitioning is saturated) (Trp fluorescence, 10 mM HEPES, 1 mM EDTA, pH 7.0, fit of partition function, ± SEM, n = 3 or 4, SEM): 3.71 ± 0.40 | measured free energy of membrane partitioning (ΔG° = −RT lnKx) (from measured Kx): -5.8 kcal/mol
